Results from patent US8361999B2, “Methods of treating cholesterol gallstone disease with ezetimibe” (Pontificia Universidad Catolica de Chile, priority 2005, dated 2013).

Columns and labels:
Bsep = test: Hepatic expression of bile salts transporter Bsep (Western blot); format: in vivo, mouse
From the text: (§1) Expression of Specific Bile Salts (Ntcp, Bsep), Phospholipid (MDR2) and Organic Anions or Glutathione (MRP2); And Determination of Glutathione Synthesis (Gluthamylcystein-Synthetase (GGCS)).
(§2) Western Blot analysis. We evaluated protein expression levels of the bile salts transporters Ntcp (sinusoidal pole) and Bsep (cannicular pole) by Western blotting in total liver membranes or liver plasma membranes from mice treated with the different diets. Total membranes were obtained from liver fragments homogenized in Tris-HCl pH 7.5, MgCl2 and sucrose. The homogenates were centrifuged at 1,000 g to separate nuclei, and the supernatants were then centrifuged at 100,000 g. The pellet, containing the total membranes, was resuspended in the buffer described above and proteins were quantified by the Bradford method. Aliquots containing 50 μg protein were separated by SDS-PAGE and transfer to nitrocellulose. The membranes were incubated in buffer TBS-T (Tris-HCl pH 7.5, NaCl and Tween-20), milk 5% w/v plus the antibodies to evaluate the different proteins (Bsep, Ntcp). The secondary antibodies were IgG anti rabbit or anti mouse coupled to peroxidase. The protein signals were detected by the ECL method.

[1] = test system: intestinal cholesterol absorption; details: mammalian models (murine models); cited from earlier work
C57BL/6J mice = test: Lithiasis of the gallbladder and cholesterol crystals in gallbladder bile, protocol #1 (14 days); format: in vivo, mouse; details: for formation of cholesterol crystals and cholesterol gallstones: C57BL/6 mice on lithogenic diet plus ezetimibe
From the text: Experimental Animal Disease Models. Spontaneous cholelithiasis is extremely rare in experimental or wild animals, probably because they secrete low levels of cholesterol into the bile and have therefore non-saturated cholesterol bile. However, different animal models (rabbit, hamster, prairie dog, squirrel and mouse) develop cholelithiasis similar to the human disease on cholesterol rich plus bile salts (cholic acid) and sometimes triglycerides rich experimental diets. The mouse is the best characterized experimental model where the development of the disease is dependent of a diet known as “lithogenic” (1.25% cholesterol, 0.5% cholic acid, 15% fat). Under these conditions most of the available mouse strains develop cholesterol cholelithiasis in variable proportions and times (Paigen, 2002). It has been established that there are strains more susceptible or more resistant to develop cholelithiasis, which could be genetically determined. The mice strains C57L and C57BL/6 are particularly susceptible to develop cholelithiasis (80-100% of the animals develop the disease in 2-4 weeks on lithogenic diet) (Paigen, 2002; Bouchard et al., unpublished data communicated in www.jax.org/pub-cgi/phenome). Studies performed in these models during the last years have been vital in the better understanding of the disease and for the discovery of genes that are potentially relevant in generating susceptibility to the illness (Paigen, 2002). In this preclinical innovation work we use the mouse strain C57BL/6.
We used mice C57BL/6J susceptible to the development of cholelithiasis originally obtained from Jackson Corp (Bar Harbor, Me., USA) and the colonies were grown in our Laboratory of Gastroenterology, Facultad de Medicina, P. Universidad Católica de Chile. The experimental groups were fed a control chow diet low in cholesterol (<0.02% cholesterol, Prolab RMH3000, PMI Feeds Inc., St. Louis, Mo.) or a lithogenic diet (1.25% cholesterol, 0.5% cholic acid, 15% fat, TD90221, Harlan Teklad, Madison, Wis.) (Amigo et al. 2000). These mice were also treated with Ezetimibe (Zetia®, Merk/Schering Plough) or placebo. In protocol #1 Zetia® tablets were grinded in a porcelain mortar and dissolved in water to be administered to the mice in one daily dose (08 h) of 5 mg/Kg weight by gavage in a final volume of […]; the control groups were given the same volume of water by gavage without the drug. In protocol #2 Zetia® tablets were grinded in the same way described above, dissolved in 200 cc 100% ethanol (Merck) and added to the lithogenic diet previously grinded and dried for 48 h at room temperature. C57BL/6J mice received this lithogenic diet plus Zetia® in a estimated dose of 5-6 mg/kg/day during 30 days (the mice consume 4-5 gr of diet per day). […]

Ntcp = test: Hepatic expression of bile salts transporter Ntcp (Western blot); format: in vivo, mouse
From the text: as §1, §2

## O=C1[C@H](CC[C@H](O)c2ccc(F)cc2)[C@@H](c2ccc(O)cc2)N1c1ccc(F)cc1 [Ezetimibe, (−)-1-(4-fluorophenyl)-(3R)-[3-(4-fluorophenyl)-(.S)-hydroxypropyl]-(4S)-(4-hydroxyphenyl)-2-azetidinone]
Bsep; 14 days
  hepatic expression of Bsep, lithogenic diet plus Ezetimibe vs lithogenic diet: no significant differences
Bsep; FIG. 6 A, on both diets
  Bsep hepatic protein expression level with Ezetimibe: does not show significant changes
[1]
  dosages that effectively inhibit intestinal cholesterol absorption: 0.1-6 mg/kg body weight per day
C57BL/6J mice
  formation of cholesterol crystals and cholesterol gallstones: complete inhibition
C57BL/6J mice; listed as ezetimibe
  formation of cholesterol crystals and cholesterol gallstones: inhibited
C57BL/6J mice; control diet low in cholesterol plus Ezetimibe
  development of cholelithiasis or cholesterol crystals in the bile: did not develop cholelithiasis or cholesterol crystals
C57BL/6J mice; lithogenic diet plus Ezetimibe 5 mg/kg/day by gavage, 100% in lithogenic diet plus water
  mice that developed gallstones or cholesterol crystals in the gallbladder: none
Ntcp; 14 days
  hepatic expression of Ntcp, lithogenic diet plus Ezetimibe vs lithogenic diet: no significant differences
Ntcp; FIG. 6 B, lithogenic diet with Ezetimibe vs plus water
  decrease of Ntcp protein expression level on a lithogenic diet: significantly attenuated
